Experimental findings from patent publication US4309559A, “Sulphonamides useful as pesticides” (FBC Limited, priority 1977, dated 1982) are described below.

Holding throughout (format): in vivo
In test [1] the test system is Peas (Pisum sativum). Kind of test: Post-emergence foliar spray, herbicidal/growth regulant response, peas. The following applies: Lathyrus oleraceus, 168 h, foliar spray 11.2 kg/ha, 7 days, 0=no effect, 100=complete kill, read-out: herbicidal or growth regulant response index. As to the method: (§1) Seeds of the plant species listed below were sown in anodised aluminium pans, 19 cm long×9.5 cm wide×5 cm deep, containing John Innes I potting compost. They were then watered and placed in a controlled environment room (22° C.; 65-85% relative humidity; 14 hours per day artificial illumination at 13,000 lux). Fourteen days after sowing, the seedlings received a foliar spray of a compound listed below, formulated as a solution in 1:1 by volume aqueous acetone. The concentration of active ingredient and volume of application were adjusted so as to be equivalent to a rate of 11.2 kg/ha in 450 liters per hectare. After seven days growth in the controlled environment room, the plants were visually assessed for any herbicidal or growth regulant response. All differences from the untreated control were scored according to an index where 0=no effect and 100=complete kill.
(§2) The product of Example 95 was tested according to the procedure of Examples 49-55.

Test [2] has as its system Mustard (Sinapis alba). As to the kind of experiment: Post-emergence foliar spray, herbicidal/growth regulant response, mustard. The note with it: 168 h, foliar spray 11.2 kg/ha, 7 days, 0=no effect, 100=complete kill, read-out: herbicidal or growth regulant response index. As to the method: as §1, §2
Test [3] has as its system Linseed (Linum usitatissimum). Kind of test: Post-emergence foliar spray, herbicidal/growth regulant response, linseed. The following applies: 168 h, foliar spray 11.2 kg/ha, 7 days, 0=no effect, 100=complete kill, read-out: herbicidal or growth regulant response index. As to the method:
as §1, §2

Test [4] deals with Ryegrass (Lolium perenne). As to the kind of experiment: Post-emergence foliar spray, herbicidal/growth regulant response, ryegrass. The following applies: 168 h, foliar spray 11.2 kg/ha, 7 days, 0=no effect, 100=complete kill, read-out: herbicidal or growth regulant response index. As to the method: as §1, §2
For test [5], the system named is Sugarbeet (Beta vulgaris). Kind of test: Post-emergence foliar spray, herbicidal/growth regulant response, sugarbeet. The note with it: 168 h, foliar spray 11.2 kg/ha, 7 days, 0=no effect, 100=complete kill, read-out: herbicidal or growth regulant response index. As to the method: as §1, §2
Test [6] concerns Oat (Avena sativa). Kind of test: Post-emergence foliar spray, herbicidal/growth regulant response, oat. The note with it: 168 h, foliar spray 11.2 kg/ha, 7 days, 0=no effect, 100=complete kill, read-out: herbicidal or growth regulant response index. The procedure:
as §1, §2

The test system of test [7] is French beans (Phaseolus vulgaris). As to the kind of experiment: Post-emergence foliar spray, herbicidal/growth regulant response, French beans. The note with it: foliar spray 11.2 kg/ha, 7 days, 0=no effect, 100=complete kill. As to the method:
as §1, §2

The test system of test [8] is Peas (Pisum sativum). As to the kind of experiment: Soil incorporation (attaclay/sand dust), growth regulatory or herbicidal effects, peas. The note with it: Lathyrus oleraceus, 504 h, soil incorporation 26 ppm, 21 days, 0=no effect, 100=complete kill, read-out: growth regulatory or herbicidal effect score. In a few lines: (§3)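 Active ingredient formulated as attaclay/sand dust and mixed into John Innes I potting compost at 26 or 130 ppm w/v (about 11.2 or 56 kg a.i./ha cultivated to 5 cm). Seeds sown in treated soil, grown 21 days at 22° C, 65-85% RH, 14 h light at 13,000 lux; visual score 0-100 versus untreated control.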

Test [9] relates to Mustard (Sinapis alba). As to the kind of experiment: Soil incorporation (attaclay/sand dust), growth regulatory or herbicidal effects, mustard. The note with it: 504 h, soil incorporation 26 ppm, 21 days, 0=no effect, 100=complete kill, read-out: growth regulatory or herbicidal effect score. The procedure, abridged: as §3
Test [10] has as its system Linseed (Linum usitatissimum). Kind of test: Soil incorporation (attaclay/sand dust), growth regulatory or herbicidal effects, linseed. The note with it: 504 h, soil incorporation 26 ppm, 21 days, 0=no effect, 100=complete kill, read-out: growth regulatory or herbicidal effect score. In a few lines:
as §3

For test [11], the system named is Maize (Zea mays). As to the kind of experiment: Soil incorporation (attaclay/sand dust), growth regulatory or herbicidal effects, maize. The following applies: 504 h, soil incorporation 26 ppm, 21 days, 0=no effect, 100=complete kill, read-out: growth regulatory or herbicidal effect score. In a few lines:
as §3

Test [12] relates to Oats (Avena sativa). As to the kind of experiment: Soil incorporation (attaclay/sand dust), growth regulatory or herbicidal effects, oats. The following applies: 504 h, soil incorporation 26 ppm, 21 days, 0=no effect, 100=complete kill, read-out: growth regulatory or herbicidal effect score. The procedure, abridged: as §3
Test [13] has as its system Ryegrass (Lolium perenne). Kind of test: Soil incorporation (attaclay/sand dust), growth regulatory or herbicidal effects, ryegrass. The note with it: 504 h, soil incorporation 26 ppm, 21 days, 0=no effect, 100=complete kill, read-out: growth regulatory or herbicidal effect score. The procedure, abridged: as §3
The test system of test [14] is Wheat (Triticum aestivum). Kind of test: Pre-emergence soil surface spray, wheat. The following applies: soil surface spray 2.8 kg/ha, 21 days, 0=no effect, 100=complete kill. The text has this:
(§4) Seeds of the plant species listed below were sown in John Innes I potting compost in aluminium pans, 19 cm long×9.5 cm wide×5.0 cm high, one species per pan. The soil surface was then sprayed with a compound listed below, formulated as a solution in 1:1 by volume aqueous acetone except for the compound of Example 44 which was formulated as an aqueous suspension containing 1000 parts per million of the wetting agent Lissapol NX (nonylphenol/ethylene oxide condensate). Each compound was applied at a rate of 2.8 kg of active ingredient per hectare in 450 liters of spray liquid per hectare. The pans were then watered, and placed in a controlled environment room (22° C., relative humidity 65-85%, 14 hours per day artificial illumination at 17,000 lux) for 21 days. The plants were then visually assessed for any growth regulatory or herbicidal effects. All differences from an untreated control were scored on a scale from 0-100, where 0 signifies no effect and 100 signifies complete kill.

In test [15] the test system is Barley (Hordeum vulgare). Kind of test: Pre-emergence soil surface spray, barley. The following applies: soil surface spray 2.8 kg/ha, 21 days, 0=no effect, 100=complete kill.
Description: as §4

The test system of test [16] is Wild Oat (Avena fatua). Kind of test: Pre-emergence soil surface spray, wild oat. The following applies: soil surface spray 2.8 kg/ha, 21 days, 0=no effect, 100=complete kill.
Description: as §4

The test system of test [17] is Blackgrass (Alopecurus myosuroides). As to the kind of experiment: Pre-emergence soil surface spray, blackgrass. The note with it: soil surface spray 2.8 kg/ha, 21 days, 0=no effect, 100=complete kill.
Description: as §4

For test [18], the system named is Barnyardgrass (Echinochloa crus-galli). Kind of test: Pre-emergence soil surface spray, barnyardgrass. The note with it: soil surface spray 2.8 kg/ha, 21 days, 0=no effect, 100=complete kill.
Description: as §4

Test [19] relates to Crabgrass (Digitaria sanguinalis). Kind of test: Pre-emergence soil surface spray, crabgrass. The note with it: soil surface spray 2.8 kg/ha, 21 days, 0=no effect, 100=complete kill.
Description: as §4

For the compound `CCCS(=O)(=O)N(c1c(C)cccc1C)C(C)C(=O)OC(C)C` (stereo not shown) [Example 3], the pest or weed control at 11200 g/ha worked out at 5% in test [1], 90% in test [2], 30% in [3] and 15% in [4]. Besides, the plant injury at 11200 g/ha stood at 90% in test [5] and 5% in [6]. The “herbicidal or growth regulant response index” value in test [7] is listed as 80. In addition, the pest or weed control at 26 µg/mL in [8] was found to be 0%; in test [9] it was 90%; in [10], 20%; in test [13], 90%. In addition, the plant injury at 26 µg/mL in test [11] and in test [12] was 20% each time. The “growth regulatory or herbicidal effect score” value in test [14] came out at 0; in [15], 0; in test [16], 80; in [17] it was 90; in test [18], 60; in [19], 90.
